According to US10753901B2, “Integrated sensor for the rapid identification of bacteria using ISFETS” (priority 2012, dated 2020):

Columns and labels:
[1] = test system: Staphylococcus aureus 8325; assay: ISFET chip detection of potassium ion efflux after addition of lysostaphin, positive control; format: cell-based; settings: compared to negative controls E. coli K12 BW25113 and P. aeruginosa (PA01), FIG. 11
Source text: In this example, the lysostaphin from Staphylococcus simulans was combined with Staphylococcus aureus 8325 as the positive control. As negative controls, lysostaphin from Staphylococcus simulans was combined with E. coli K12 BW25113, and lysostaphin from Staphylococcus simulans was combined with Pseudomonas aeruginosa (PA01).

E. coli K12 BW25113 = assay: ISFET chip detection of potassium ion efflux after addition of antibacterial agent, positive control; format: cell-based; settings: in SM buffer, compared to negative control BL21, FIG. 12
Protocol: In this example, the bacteriocin Colicin A9 was combined with E. coli K12 BW25113 as the positive control. As negative controls, Colicin A9 was combined with Staphylococcus aureus 8325, and Colicin A9 was combined with Pseudomonas aeruginosa (PA01). Experiments were performed as described above for Example 1, using the ISFET system 600.
In this example, the Polymyxin B antibiotic (PMB) was combined with E. coli K12 BW25113 in SM buffer as the positive control. As the negative control, Polymyxin B antibiotic (PMB) combined with E. coli K12 BL21 (DE3-Δtail) (referred to as BL21) in SM buffer. Experiments were performed as described above for Example 1, using the ISFET system 600.

| Substance | ISFET output from efflux of potassium ions [1] | ISFET output from efflux of potassium ions (E. coli K12 BW25113) |
| --- | --- | --- |
| lysostaphin: lysostaphin from Staphylococcus simulans | output increases |  |
| Polymyxin B |  | output increases |
